Reference: patent EP4782450A1, “NOVEL SKELETAL DERIVATIVE EFFECTIVE FOR HER2 MUTATION, AND PHARMACEUTICAL COMPOSITION COMPRISING SAME” (Hanmi Pharm. Co., Ltd., priority 2023, dated 2025)
Like-named read-outs stand apart in the source and are kept apart here.

Legend:
[1] = system: wild-type EGFR overexpressing Ba/F3 cells; assay: Growth inhibition of Ba/F3 cells engineered to overexpress wild-type EGFR (CellTiter-Glo luminescence); assay type: cell-based; details: concentrations 10000 to 8 nM, read-out: Ba/F3 EGFR^WT GI50 class
Description: (§1) Experimental Example: Growth inhibition of Ba/F3 HER2 A775insYVMA and wild-type Ba/F3 cells
(§2) In this Experimental Example, the compounds obtained in Examples 1 to 92 were evaluated for their ability to inhibit growth of cells harboring either the HER2 A775insYVMA mutation or wild-type EGFR. For this purpose, Ba/F3 cells (ATCC, USA) were genetically engineered to overexpress either HER2 A775_G776insYVMA or wild-type EGFR, and the growth of these engineered Ba/F3 cells were monitored in the presence of the compounds described in the Examples to evaluate their effects on growth inhibition.
(§3) Specifically, culture flasks of the engineered Ba/F3 cells suspended in RPMI 1640 medium supplemented with 10% fetal bovine serum (FBS) and 1% penicillin/streptomycin (Gibco BRL, USA) were placed in a cell incubator and incubated at 37°C and 5% CO2 level to allow them to reach a stable logarithmic growth phase. The cells were then harvested by centrifugation to remove the old media and placed into a 96-well plate by dividing them into 100 µL aliquots per well at a dilution of 1×10^5 cells/mL in fresh media. Each of the compounds prepared in the preceding Examples were dissolved in 99.5% (cell culture grade) dimethylsulfoxide (DMSO) to prepare a stock solution of 10 mM concentration, which were serially diluted in the culture medium to final concentrations of 1000, 200, 40, 8, 1.6 and 0.32 nM for HER2 A775insYVMA Ba/F3 cells and concentrations of 10000, 5000, 1000, 200, 40 and 8 nM for wild-type EGFR overexpressing Ba/F3 cells.
(§4) To each aliquot of cells in the 96-well plate, a 50 µL test solution comprising one of the compounds was added to result in each well a 150 µL volume of cells with a compound in a final concentration ranging from 10 µM to 0.32 nM. The Ba/F3 cells treated with the test solution were incubated for 72 hours at 37°C and 5% CO2 level and underwent a 30-minute acclimation by placing the 96-well plate carrying the cells in ambient temperature. Thereafter, to each well was added 50 µL CellTiter-Glo® Luminescent Cell Assay Reagent (CTG, Promega, USA). After allowing 10 minutes to stabilize the signal, luminescence intensity was measured using a microplate reader. The half-maximal growth inhibition concentration (GI50) was calculated from the luminescence readout of the test compounds with the difference between the initial and final cell densities for the well untreated with a compound set at 100% growth. Nonlinear regression analysis based on log[inhibitor] vs. normalized response mode of the Graph Prism software was used for calculating GI50 for each compound, which are summarized in Table 6. The calculated GI50 values are classified in Table 6 into four categories: A for GI50 values less than 100 nM, B for GI50 values more than 100 nM but less than 1,000 nM, C for GI50 values more than 1,000 nM but less than 5,000 nM, and D for GI50 values of more than 5,000 nM.

Ba/F3 HER2 A775insYVMA = assay: Growth inhibition of Ba/F3 cells engineered to overexpress HER2 A775_G776insYVMA (CellTiter-Glo luminescence); assay type: cell-based; details: concentrations 1000 to 0.32 nM, read-out: Ba/F3 HER2^YVMA GI50 class
Description: as §1, §2, §3, §4

C=CC(=O)N(C)C/C=C/c1ncc2ncnc(Nc3ccc(Oc4ccc5c(c4)ncn5C)c(C)c3)c2n1 [Example 24, (E)-N-methyl-N-(3-(8-((3-methyl-4-((1-methyl-1H-benzo[d]imidazol-5-yl)oxy)phenyl)amino)pyrimido[5,4-d]pyrimidin-2-yl)allyl)acrylamide]
GI50 ([1]; Mus musculus, BaF3, 72 hours): 1000 to 5000 nM | GI50 (Ba/F3 HER2 A775insYVMA; Mus musculus, BaF3, 72 hours): < 100 nM

C=CC(=O)N1CCC[C@@H]1C#Cc1ncc2ncnc(Nc3ccc(OC4=CC5N=CN(C)C5C=C4)c(C)c3)c2n1 (stereo partly drawn) [Example 90, 1-((2R)-2-((8-((3-methyl-4-((1-methyl-3a,7a-dihydro-1H-benzo[d]imidazol-5-yl)oxy)phenyl)amino)pyrimido[5,4-d]pyrimidin-2-yl)ethynyl)pyrrolidin-1-yl)prop-2-en-1-one]
GI50 ([1]; Mus musculus, BaF3, 72 hours): < 100 nM | GI50 (Ba/F3 HER2 A775insYVMA; Mus musculus, BaF3, 72 hours): < 100 nM

C=CC(=O)N1CCCC[C@@H]1C#Cc1ccc2ncnc(Nc3ccc(Oc4ccc5c(c4)ncn5C)c(C)c3)c2n1 [Example 88, (R)-1-(2-((4-((3-methyl-4-((1-methyl-1H-benzo[d]imidazol-5-yl)oxy)phenyl)amino)pyrido[3,2-d]pyrimidin-6-yl)ethynyl)piperidin-1-yl)prop-2-en-1-one]
GI50 ([1]; Mus musculus, BaF3, 72 hours): 1000 to 5000 nM | GI50 (Ba/F3 HER2 A775insYVMA; Mus musculus, BaF3, 72 hours): < 100 nM

C=CC(=O)N(C)C/C=C/c1ccc2ncnc(Nc3ccc(Oc4ccc5c(c4)ncn5C)c(C)c3)c2n1 [Example 23, (E)-N-methyl-N-(3-(4-((3-methyl-4-((1-methyl-1H-benzo[d]imidazol-5-yl)oxy)phenyl)amino)pyrido[3,2-d]pyrimidin-6-yl)aryl)acrylamide]
GI50 ([1]; Mus musculus, BaF3, 72 hours): > 5000 nM | GI50 (Ba/F3 HER2 A775insYVMA; Mus musculus, BaF3, 72 hours): < 100 nM

C=CC(=O)N(C)C(C)/C=C/c1ccc2ncnc(Nc3ccc(Oc4ccc5c(c4)ncn5C)c(C)c3)c2n1 (centres unmarked) [Example 50, (E)-N-methyl-N-(4-(4-((3-methyl-4-((1-methyl-1H-benzo[d]imidazol-5-yl)oxy)phenyl)amino)pyrido[3,2-d]pyrimidin-6-yl)but-3-en-2-yl)acrylamide]
GI50 ([1]; Mus musculus, BaF3, 72 hours): 1000 to 5000 nM | GI50 (Ba/F3 HER2 A775insYVMA; Mus musculus, BaF3, 72 hours): < 100 nM

C=CC(=O)N1CCC(/C=C/c2ccc3ncnc(Nc4ccc(Oc5ccc6c(c5)ncn6C)c(C)c4)c3n2)C1 (centres unmarked) [Example 29, (E)-1-(3-(2-(4-((3-methyl-4-((1-methyl-1H-benzo[d]imidazol-5-yl)oxy)phenyl)amino)pyrido[3,2-d]pyrimidin-6-yl)vinyl)pyrrolidin-1-yl)prop-2-en-1-one]
GI50 ([1]; Mus musculus, BaF3, 72 hours): 1000 to 5000 nM | GI50 (Ba/F3 HER2 A775insYVMA; Mus musculus, BaF3, 72 hours): < 100 nM

C=CC(=O)N1CC[C@H]1C#Cc1ccc2ncnc(Nc3ccc(Oc4ccn5ncnc5c4)c(C)c3)c2c1 [Example 79, (S)-1-(2-((4-((4-([1,2,4]triazolo[1,5-a]pyridin-7-yloxy)-3-methylphenyl)amino)quinazolin-6-yl)ethynyl)azetidin-1-yl)prop-2-en-1-one]
GI50 ([1]; Mus musculus, BaF3, 72 hours): 1000 to 5000 nM | GI50 (Ba/F3 HER2 A775insYVMA; Mus musculus, BaF3, 72 hours): 1000 to 5000 nM

C=CC(=O)N1CCC[C@@H]1C#Cc1ccc2ncnc(Nc3ccc(Oc4ccn5ncnc5c4)c(C)c3)c2n1 [Example 80, (R)-1-(2-((4-((4-([1,2,4]triazolo[1,5-a]pyridin-7-yloxy)-3-methylphenyl)amino)pyrido[3,2-d]pyrimidin-6-yl)ethynyl)pyrrolidin-1-yl)prop-2-en-1-one]
GI50 ([1]; Mus musculus, BaF3, 72 hours): 100 to 1000 nM | GI50 (Ba/F3 HER2 A775insYVMA; Mus musculus, BaF3, 72 hours): < 100 nM

C=CC(=O)N(C)C/C=C/c1ccc2ncnc(Nc3ccc(Oc4cnc5c(c4)ncn5C)c(C)c3)c2n1 [Example 43, (E)-N-methyl-N-(3-(4-((3-methyl-4-((3-methyl-3H-imidazo[4,5-b]pyridin-6-yl)oxy)phenyl)amino)pyrido[3,2-d]pyrimidin-6-yl)allyl)acrylamide]
GI50 ([1]; Mus musculus, BaF3, 72 hours): 1000 to 5000 nM | GI50 (Ba/F3 HER2 A775insYVMA; Mus musculus, BaF3, 72 hours): < 100 nM

C=CC(=O)N1CCCC[C@@H]1C#Cc1ccc2ncnc(Nc3ccc(Oc4ccn5ncnc5c4)c(C)c3)c2c1 [Example 76, (R)-1-(2-((4-((4-([1,2,4]triazolo[1,5-a]pyridin-7-yloxy)-3-methylphenyl)amino)quinazolin-6-yl)ethynyl)piperidin-1-yl)prop-2-en-1-one]
GI50 ([1]; Mus musculus, BaF3, 72 hours): 100 to 1000 nM | GI50 (Ba/F3 HER2 A775insYVMA; Mus musculus, BaF3, 72 hours): < 100 nM

C=CC(=O)NC/C=C/c1ccc2ncnc(Nc3ccc(Oc4ccc5c(c4)ncn5C)c(C)c3Cl)c2n1 [Example 36, (E)-N-(3-(4-((2-chloro-3-methyl-4-((1-methyl-1H-benzo[d]imidazol-5-yl)oxy)phenyl)amino)pyrido[3,2-d]pyrimidin-6-yl)allyl)acrylamide]
GI50 ([1]; Mus musculus, BaF3, 72 hours): > 5000 nM | GI50 (Ba/F3 HER2 A775insYVMA; Mus musculus, BaF3, 72 hours): < 100 nM

Cc1cc(Nc2ncnc3ccc(/C=C/CNC(=O)/C=C/CN4CCCCC4)nc23)ccc1Oc1ccc2c(c1)ncn2C [Example 59, (E)-N-((E)-3-(4-((3-methyl-4-((1-methyl-1H-benzo[d]imidazol-5-yl)oxy)phenyl)amino)pyrido[3,2-d]pyrimidin-6-yl)allyl)-4-(piperidin-1-yl)but-2-enamide]
GI50 ([1]; Mus musculus, BaF3, 72 hours): 1000 to 5000 nM | GI50 (Ba/F3 HER2 A775insYVMA; Mus musculus, BaF3, 72 hours): < 100 nM

C=CC(=O)N(CC)C/C=C/c1ccc2ncnc(Nc3ccc(Oc4ccc5c(c4)ncn5C)c(C)c3)c2n1 [Example 49, (E)-N-ethyl-N-(3-(4-((3-methyl-4-((1-methyl-1H-benzo[d]imidazol-5-yl)oxy)phenyl)amino)pyrido[3,2-d]pyrimidin-6-yl)allyl)acrylamide]
GI50 ([1]; Mus musculus, BaF3, 72 hours): > 5000 nM | GI50 (Ba/F3 HER2 A775insYVMA; Mus musculus, BaF3, 72 hours): < 100 nM

N-methyl-N-(2-((8-((3-methyl-4-((1-methyl-1H-benzo[d]imidazol-5-yl)oxy)phenyl)amino)pyrimido[5,4-d]pyrimidin-2-yl)amino)ethyl)acrylamide [Example 16]
GI50 ([1]; 72 hours): > 5000 nM | GI50 (Ba/F3 HER2 A775insYVMA; 72 hours): 100 to 1000 nM

C=CC(=O)N1CC(/C=C/c2ccc3ncnc(Nc4cc(C)c(Oc5ccc6c(c5)ncn6C)cc4F)c3n2)C1 [Example 45]
GI50 ([1]; Mus musculus, BaF3, 72 hours): > 5000 nM | GI50 (Ba/F3 HER2 A775insYVMA; Mus musculus, BaF3, 72 hours): < 100 nM

N-(2-((8-((4-([1,2,4]triazolo[1,5-a]pyridin-7-yloxy)-3-methylphenyl)amino)pyrimido[5,4-d]pyrimidin-2-yl)oxy)ethyl)-N-methylacrylamide [Example 4]
GI50 ([1]; 72 hours): 1000 to 5000 nM | GI50 (Ba/F3 HER2 A775insYVMA; 72 hours): 1000 to 5000 nM

C=CC(=O)N1CC(/C=C/c2ccc3ncnc(Nc4ccc(Oc5cnc6c(c5)ncn6C)c(C)c4F)c3n2)C1 [Example 47]
GI50 ([1]; Mus musculus, BaF3, 72 hours): 1000 to 5000 nM | GI50 (Ba/F3 HER2 A775insYVMA; Mus musculus, BaF3, 72 hours): < 100 nM

C=CC(=O)N(C)CCN(C)c1ccc2ncnc(Nc3ccc(Oc4ccn5ncnc5c4)c(C)c3)c2n1 [Example 13, N-(2-((4-((4-([1,2,4]triazolo[1,5-a]pyridin-7-yloxy)-3-methylphenyl)amino)pyrido[3,2-d]pyrimidin-6-yl)(methyl)amino)ethyl)-N-methylacrylamide]
GI50 ([1]; Mus musculus, BaF3, 72 hours): 1000 to 5000 nM | GI50 (Ba/F3 HER2 A775insYVMA; Mus musculus, BaF3, 72 hours): 100 to 1000 nM

C=CC(=O)N1CCC[C@@H]1C#Cc1ccc2ncnc(Nc3ccc(Oc4ccc5c(c4)ncn5C)c(C)c3)c2c1 [Example 85, (R)-1-(2-((4-((3-methyl-4-((1-methyl-1H-benzo[d]imidazol-5-yl)oxy)phenyl)amino)quinazolin-6-yl)ethynyl)pyrrolidin-1-yl)prop-2-en-1-one]
GI50 ([1]; Mus musculus, BaF3, 72 hours): 100 to 1000 nM | GI50 (Ba/F3 HER2 A775insYVMA; Mus musculus, BaF3, 72 hours): < 100 nM

C=CC(=O)NCCOc1ccc2ncnc(Nc3ccc(Oc4ccc5c(c4)ncn5C)c(C)c3)c2c1 [Example 10, N-(2-((4-((3-methyl-4-((1-methyl-1H-benzo[d]imidazol-5-yl)oxy)phenyl)amino)quinazolin-6-yl)oxy)ethyl)acrylamide]
GI50 ([1]; Mus musculus, BaF3, 72 hours): 1000 to 5000 nM | GI50 (Ba/F3 HER2 A775insYVMA; Mus musculus, BaF3, 72 hours): < 100 nM

C=CC(=O)N(C)CCN(C)c1ncc2ncnc(Nc3ccc(Oc4ccc5c(c4)ncn5C)c(C)c3)c2n1 [Example 19, N-methyl-N-(2-(methyl(8-((3-methyl-4-((1-methyl-1H-benzo[d]imidazol-5-yl)oxy)phenyl)amino)pyrimido[5,4-d]pyrimidin-2-yl)amino)ethyl)acrylamide]
GI50 ([1]; Mus musculus, BaF3, 72 hours): > 5000 nM | GI50 (Ba/F3 HER2 A775insYVMA; Mus musculus, BaF3, 72 hours): 100 to 1000 nM

C=CC(=O)N(C)CCNc1ncc2ncnc(Nc3ccc(Oc4ccn5ncnc5c4)c(C)c3)c2n1 [Example 12, N-(2-((8-((4-([1,2,4]triazolo[1,5-a]pyridin-7-yloxy)-3-methylphenyl)amino)pyrimido[5,4-d]pyrimidin-2-yl)amino)ethyl)-N-methylacrylamide]
GI50 ([1]; Mus musculus, BaF3, 72 hours): 1000 to 5000 nM | GI50 (Ba/F3 HER2 A775insYVMA; Mus musculus, BaF3, 72 hours): 1000 to 5000 nM
